According to patent US20230184746A1, “HIGH-SENSITIVITY DETECTION OF GPCR ACTIVITY AND USES THEREOF” (Firmenich Incorporated, priority 2020, published 2023):
“Also recorded” adds a separate entry of the source.

Experiments:
Format in all cases: cell-based
[1] = molecular target: T1, human sweet taste receptor (hT1R2/hT1R3) (Homo sapiens, UniProt Q7RTX0+Q8TE23, C757R/I191V/I486V/R317G); test: Bias plotting analysis: DMR assay with R2/R3 U2OS cells vs FLIPR-calcium mobilization assay with R2/R3 U2OS cells expressing Gα15; details: equimolar concentrations; data normalized to 1 mM sucralose; relative to other sweeteners
T1 construct: expressed in transfected cells
T1 sequence (Q8TE23 20-839 I191V/R317G/I486V): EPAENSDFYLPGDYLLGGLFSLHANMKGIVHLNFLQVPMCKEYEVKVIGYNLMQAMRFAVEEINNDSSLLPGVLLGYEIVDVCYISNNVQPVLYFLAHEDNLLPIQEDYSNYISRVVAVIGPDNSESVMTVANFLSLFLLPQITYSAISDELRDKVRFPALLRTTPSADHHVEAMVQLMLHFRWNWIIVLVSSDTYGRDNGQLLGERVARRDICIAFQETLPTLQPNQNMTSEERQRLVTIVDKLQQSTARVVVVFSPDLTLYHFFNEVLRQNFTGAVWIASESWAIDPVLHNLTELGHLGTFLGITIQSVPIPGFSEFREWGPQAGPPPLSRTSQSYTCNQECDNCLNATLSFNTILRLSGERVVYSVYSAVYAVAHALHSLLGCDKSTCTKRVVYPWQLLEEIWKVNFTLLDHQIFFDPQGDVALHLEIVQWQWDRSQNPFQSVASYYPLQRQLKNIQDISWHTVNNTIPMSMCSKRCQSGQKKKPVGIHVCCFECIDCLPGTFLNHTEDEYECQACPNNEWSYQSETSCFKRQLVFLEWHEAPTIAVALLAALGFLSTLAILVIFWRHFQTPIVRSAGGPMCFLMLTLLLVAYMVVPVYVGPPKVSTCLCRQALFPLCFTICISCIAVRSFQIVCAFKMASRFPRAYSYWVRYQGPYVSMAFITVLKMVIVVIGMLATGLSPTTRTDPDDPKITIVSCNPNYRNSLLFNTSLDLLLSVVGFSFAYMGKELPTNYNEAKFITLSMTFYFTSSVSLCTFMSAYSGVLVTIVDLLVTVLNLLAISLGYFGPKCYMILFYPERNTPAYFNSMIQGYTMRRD
T1 sequence (Q7RTX0 21-852 C757R): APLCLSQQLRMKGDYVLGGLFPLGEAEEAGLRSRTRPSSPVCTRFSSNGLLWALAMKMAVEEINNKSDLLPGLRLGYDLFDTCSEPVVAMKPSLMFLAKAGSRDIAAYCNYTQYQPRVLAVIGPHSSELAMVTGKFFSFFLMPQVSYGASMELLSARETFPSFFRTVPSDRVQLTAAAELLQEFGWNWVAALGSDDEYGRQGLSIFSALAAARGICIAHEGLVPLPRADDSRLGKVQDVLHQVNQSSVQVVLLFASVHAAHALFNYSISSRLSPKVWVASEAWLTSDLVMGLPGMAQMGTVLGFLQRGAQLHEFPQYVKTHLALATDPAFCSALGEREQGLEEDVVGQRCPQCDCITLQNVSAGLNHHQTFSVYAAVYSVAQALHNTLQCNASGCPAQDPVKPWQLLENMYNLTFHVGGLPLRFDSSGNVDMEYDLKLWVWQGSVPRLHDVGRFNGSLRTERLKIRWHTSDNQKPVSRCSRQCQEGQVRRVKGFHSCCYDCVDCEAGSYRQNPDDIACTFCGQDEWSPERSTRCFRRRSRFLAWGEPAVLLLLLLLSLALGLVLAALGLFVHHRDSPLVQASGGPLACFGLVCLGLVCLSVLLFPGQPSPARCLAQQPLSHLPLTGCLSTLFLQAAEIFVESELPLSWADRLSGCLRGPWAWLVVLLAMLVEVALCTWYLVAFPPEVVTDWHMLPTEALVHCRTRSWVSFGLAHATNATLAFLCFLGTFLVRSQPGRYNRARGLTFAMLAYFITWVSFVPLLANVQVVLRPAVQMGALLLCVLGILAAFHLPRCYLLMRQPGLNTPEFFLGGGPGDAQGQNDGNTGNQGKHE
Procedure: (§1) Untransfected U2OS cells were cultured at 37° C. and 5% CO2 in McCoy's 5A medium (modified, GIBCO#16600) supplemented with 10% fetal bovine serum and penicillin/streptomycin. Plasmids encoding hT1R2 in pEAK10-puromycin and hT1R3 in pcDNA3.1-zeocin were linearized and transfected into U2OS cells followed by dilution and double selection in growth medium plus 0.5 μg/m1puromycin and 100 μg/mlzeocin. Individual colonies were expanded and transiently transfected with a Gα6gust25 expression construct to identify functional clones using sucralose as the agonist in a Ca2+ imaging assay. […] The lidded Epic® 384 microplate and polypropylene compound plate (Corning) were loaded into the carousel of the Epic® reader, the target plate was washed with DMSO matched D-PBS using the Corning Epic® Liquid Handling Accessory (LHA) and equilibrated in 25 μL of DMSO matched D-PBS for 90 minutes. After recording the baseline activity for 5 to 8 minutes, 25 μL of 2× concentrated solution of sweetener, agonist or a mixture of agonist and modulator, diluted in D-PBS, was added using the LHA and the DMR responses which measures a shift in the resonance wavelength, were monitored for an additional 30 minutes. […]
(§2) In FIG. 2A known sweeteners and new agonists were evaluated in the DMR assay with R2/R3 U2OS cells using a dose-response analysis. […]

[2] = molecular target: T1, human sweet taste receptor (hT1R2/hT1R3); test: DMR assay (Epic reader) with R2/R3 U2OS cells; details: increasing concentrations, no overexpressed G protein
Procedure: as §1, §2

[3] = system: parental U2OS cells; test: DMR assay (Epic reader) with parental U2OS cells; details: parental (untransfected) U2OS cells, increasing concentrations
Procedure: as §1, with “assay. […] (R2/R3 U2OS cells) were seeded on Epic®384 microplates (Corning) at a density of 16,000 cells/well in 40 pt of assay media using a multidrop (Thermo Scientific).” for “assay.”

Row | DMR signal (shift in resonance wavelength) [2] | SMILES | Bias between FLIPR assay and DMR (EPIC) assay [1] | DMR signal (shift in resonance wavelength) [3]
1 |  | CCCOc1ccc([N+](=O)[O-])cc1N [P-4000] | more active in the FLIPR assay; also recorded: clear bias for the FLIPR assay | 
2 | positive DMR signal | OC[C@H]1O[C@H](O[C@]2(CCl)O[C@H](CCl)[C@@H](O)[C@@H]2O)[C@H](O)[C@@H](O)[C@H]1Cl [sucralose] |  | does not cause a comparable positive DMR signal
3 |  | COC(=O)[C@H](Cc1ccccc1)NC(=O)[C@H](CC(=O)O)NCCC(C)(C)C [Neotame] | more active in the FLIPR assay; also recorded: clear bias for the FLIPR assay | 
